Reference: patent US10143648B2, “Peptide and oside extract of schisandra fruit and improvement in the response of the cutaneous neurosensory system” (LABORATOIRES EXPANSCIENCE, priority 2014, dated 2018)

Columns and labels:
[1] = biological target: T1, TRPV1 receptor (Homo sapiens, UniProt Q8NER1); assay: Intracytoplasmic calcium mobilization (Fluo-4) in sensory neurons stimulated by capsaicin in co-culture with keratinocytes; assay type: cell-based; details: capsaicin 10^-6 M, vs. control
T1 construct: Sensory neurons cultured in the presence of normal human epidermal keratinocytes; endogenous in cells; host or cells: sensory neurons in co-culture with normal human epidermal keratinocytes
Method: Activation of the TRPV1 receptor on sensory neurons can be evaluated by analyzing the electrical activity of sensory neurons by monitoring variations of the cytoplasmic calcium concentration. Indeed, when cells are stimulated by capsaicin, a massive amount of extracellular calcium enters the neuronal cytoplasm in order to trigger electrical activity and to cause a massive release of neuropeptides in the extracellular space. The variation of the level of fluorescence is analyzed by the incorporation of a calcium-dependent fluorescent probe (Fluo-4) in the cells. Thus, during the increase in calcium in the cells, the level of fluorescence increases in the cell body of the neurons. The higher this level, the higher the stimulation of the neurons. Sensory neurons cultured in the presence of normal human epidermal keratinocytes were incubated in the presence of the peptide and oside extract of Schisandra sphenanthera at concentrations of 0.005%, 0.01%, 0.05% and 0.1% (DM) or the reference molecule, capsazepine, at a concentration of 10^−5 M (Sigma). After 60 minutes of pre-incubation, the fluorescent probe, Fluo-4 (Molecular probe), was added to the culture medium and the cells were incubated 30 minutes. […] The significance of the results was confirmed by Bartlett's test.

[2] = system: CGRP; assay: CGRP release by sensory neurons stimulated by capsaicin in co-culture with keratinocytes; assay type: cell-based; details: 60 min pre-incubation, extract 0.005%-0.1% (DM) or capsazepine 10^-5 M, capsaicin 10^-7 M, 15 min
Method: Sensory neurons were cultured in the presence of normal human epidermal keratinocytes. After 3 days of co-culture, the neurons project extensions in the form of free endings in contact with the keratinocytes. The cells were then incubated in the presence of the peptide and oside extract of Schisandra Sphenanthera at concentrations of 0.005%, 0.01%, 0.05% and 0.1% (DM) or the reference molecule, capsazepine, at a concentration of 10^−5 M (Sigma). After 60 minutes of pre-incubation, the neurons (in co-culture) were stimulated by capsaicin at a concentration of 10^−7 M (Sigma). After 15 minutes of stimulation, the culture supernatants were collected in order to assay the released CGRP. The CGRP assay was carried out using the CGRP assay kit (SpiBio). The significance of the results was confirmed by one-way analysis of variance followed by Dunnett's test.

T1 sequence (Q8NER1 whole entry): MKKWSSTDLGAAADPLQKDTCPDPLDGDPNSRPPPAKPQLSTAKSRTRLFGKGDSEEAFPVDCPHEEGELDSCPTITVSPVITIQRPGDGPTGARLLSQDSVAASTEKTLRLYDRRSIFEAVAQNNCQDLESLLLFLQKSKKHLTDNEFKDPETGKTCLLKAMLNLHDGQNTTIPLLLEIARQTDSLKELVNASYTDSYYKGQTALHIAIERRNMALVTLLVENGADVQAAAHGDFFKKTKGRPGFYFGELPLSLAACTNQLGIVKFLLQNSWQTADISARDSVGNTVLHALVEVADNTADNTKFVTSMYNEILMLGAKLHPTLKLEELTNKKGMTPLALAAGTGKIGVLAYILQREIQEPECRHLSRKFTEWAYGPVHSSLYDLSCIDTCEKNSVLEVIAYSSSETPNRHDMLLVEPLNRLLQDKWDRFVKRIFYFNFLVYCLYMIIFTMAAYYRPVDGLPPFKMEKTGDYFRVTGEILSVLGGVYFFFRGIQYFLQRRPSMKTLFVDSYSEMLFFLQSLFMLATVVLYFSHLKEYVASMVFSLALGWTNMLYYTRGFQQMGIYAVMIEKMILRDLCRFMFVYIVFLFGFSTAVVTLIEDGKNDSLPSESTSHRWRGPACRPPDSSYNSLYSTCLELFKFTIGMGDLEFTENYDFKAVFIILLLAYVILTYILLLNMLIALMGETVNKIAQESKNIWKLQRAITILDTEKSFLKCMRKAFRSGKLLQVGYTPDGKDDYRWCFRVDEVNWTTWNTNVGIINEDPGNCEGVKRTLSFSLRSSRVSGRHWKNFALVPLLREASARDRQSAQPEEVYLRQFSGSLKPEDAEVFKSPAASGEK

Structure (SMILES) | level of fluorescence (quantity of intracytoplasmic calcium) after addition of the stimulus [1] | release of CGRP induced by capsaicin [2]
COc1cc(CNC(=O)CCCC/C=C/C(C)C)ccc1O [capsaicin] | significant increase in the level of fluorescence | –
Oc1cc2c(cc1O)CN(C(=S)NCCc1ccc(Cl)cc1)CCC2 [capsazepine] | – | inhibitory effect
